Measured values as given in ChEMBL document CHEMBL6127020, “Discovery of aminopiperidine based potent & novel topoisomerase inhibitor with broad spectrum anti-bacterial activity” (Bioorg Med Chem Lett, 2024).
Values after ≈ are worked out from the molar mass of the structure shown.

What was measured:
Escherichia coli [1] = test: Antibacterial activity against Escherichia coli ATCC 25922 assessed as inhibition of bacterial growth; format: functional
Staphylococcus aureus [2] = test: Antibacterial activity against Staphylococcus aureus ATCC 29213 assessed as inhibition of bacterial growth; format: functional
DNA gyrase = DNA gyrase (Staphylococcus aureus, UniProt P0A0K8+P20831); test: Inhibition of Staphylococcus aureus DNA gyrase; format: protein-complex assay
DNA gyrase, sequence (P0A0K8 whole entry): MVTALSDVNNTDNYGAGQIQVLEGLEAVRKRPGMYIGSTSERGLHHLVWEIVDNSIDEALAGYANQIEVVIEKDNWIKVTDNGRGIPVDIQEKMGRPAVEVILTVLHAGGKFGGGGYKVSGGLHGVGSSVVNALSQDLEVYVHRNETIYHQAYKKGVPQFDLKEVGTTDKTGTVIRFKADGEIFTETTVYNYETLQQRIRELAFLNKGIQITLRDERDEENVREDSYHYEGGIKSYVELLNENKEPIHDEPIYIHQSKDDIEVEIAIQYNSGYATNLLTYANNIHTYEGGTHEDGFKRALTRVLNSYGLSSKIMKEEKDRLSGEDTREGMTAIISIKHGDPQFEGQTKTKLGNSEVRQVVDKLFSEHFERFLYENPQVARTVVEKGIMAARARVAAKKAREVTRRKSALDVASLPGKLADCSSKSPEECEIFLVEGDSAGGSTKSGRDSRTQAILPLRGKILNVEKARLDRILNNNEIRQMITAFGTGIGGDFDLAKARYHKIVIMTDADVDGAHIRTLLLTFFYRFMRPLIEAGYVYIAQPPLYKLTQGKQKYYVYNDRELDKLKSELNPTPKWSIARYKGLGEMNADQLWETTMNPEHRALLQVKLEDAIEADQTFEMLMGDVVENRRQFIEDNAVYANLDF
DNA gyrase, sequence (P20831 whole entry): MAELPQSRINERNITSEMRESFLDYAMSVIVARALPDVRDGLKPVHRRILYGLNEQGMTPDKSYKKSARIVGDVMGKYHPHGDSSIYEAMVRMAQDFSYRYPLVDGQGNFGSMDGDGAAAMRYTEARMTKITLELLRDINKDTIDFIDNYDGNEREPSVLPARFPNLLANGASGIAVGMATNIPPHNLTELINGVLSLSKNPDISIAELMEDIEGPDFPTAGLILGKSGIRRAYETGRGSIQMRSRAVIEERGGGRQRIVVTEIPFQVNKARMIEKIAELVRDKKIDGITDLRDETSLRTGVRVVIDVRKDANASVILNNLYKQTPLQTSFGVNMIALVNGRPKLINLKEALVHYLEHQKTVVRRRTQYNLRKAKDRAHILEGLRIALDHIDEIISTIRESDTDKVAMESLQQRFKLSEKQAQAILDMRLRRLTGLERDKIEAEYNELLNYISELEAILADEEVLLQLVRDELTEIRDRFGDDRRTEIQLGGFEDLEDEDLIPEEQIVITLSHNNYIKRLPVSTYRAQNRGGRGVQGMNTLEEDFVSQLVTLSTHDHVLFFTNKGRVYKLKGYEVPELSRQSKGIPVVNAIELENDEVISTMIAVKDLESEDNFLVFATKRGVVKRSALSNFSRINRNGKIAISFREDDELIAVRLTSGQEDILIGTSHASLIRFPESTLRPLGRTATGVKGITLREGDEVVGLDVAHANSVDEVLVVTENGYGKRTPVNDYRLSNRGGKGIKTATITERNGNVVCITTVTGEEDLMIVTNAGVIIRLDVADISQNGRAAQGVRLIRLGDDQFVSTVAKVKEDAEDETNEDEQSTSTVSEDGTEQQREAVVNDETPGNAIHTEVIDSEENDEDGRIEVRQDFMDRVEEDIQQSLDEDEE

Cytochrome P450 2C19 = Cytochrome P450 2C19 (Homo sapiens, UniProt P33261); test: Inhibition of CYP2C19 (unknown origin) at 10 uM; format: ADME
Cytochrome P450 2C19, sequence (P33261 whole entry): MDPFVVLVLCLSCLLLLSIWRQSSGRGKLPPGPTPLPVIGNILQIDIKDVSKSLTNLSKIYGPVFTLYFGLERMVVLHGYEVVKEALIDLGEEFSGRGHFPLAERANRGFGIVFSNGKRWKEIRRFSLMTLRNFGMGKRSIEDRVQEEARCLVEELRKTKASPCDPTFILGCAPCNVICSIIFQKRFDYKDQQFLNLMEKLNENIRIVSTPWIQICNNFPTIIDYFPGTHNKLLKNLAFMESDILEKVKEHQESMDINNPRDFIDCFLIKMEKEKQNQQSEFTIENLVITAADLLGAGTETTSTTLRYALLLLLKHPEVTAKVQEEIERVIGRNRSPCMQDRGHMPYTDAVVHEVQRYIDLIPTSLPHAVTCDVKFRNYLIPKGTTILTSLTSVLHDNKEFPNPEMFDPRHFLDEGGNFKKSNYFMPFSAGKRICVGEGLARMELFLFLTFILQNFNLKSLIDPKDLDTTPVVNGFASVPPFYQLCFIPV

Cytochrome P450 2C8 = molecular target: T1, Cytochrome P450 2C8 (Homo sapiens, UniProt P10632); test: Inhibition of CYP2C8 (unknown origin) at 10 uM; format: ADME
T1 sequence (P10632 whole entry): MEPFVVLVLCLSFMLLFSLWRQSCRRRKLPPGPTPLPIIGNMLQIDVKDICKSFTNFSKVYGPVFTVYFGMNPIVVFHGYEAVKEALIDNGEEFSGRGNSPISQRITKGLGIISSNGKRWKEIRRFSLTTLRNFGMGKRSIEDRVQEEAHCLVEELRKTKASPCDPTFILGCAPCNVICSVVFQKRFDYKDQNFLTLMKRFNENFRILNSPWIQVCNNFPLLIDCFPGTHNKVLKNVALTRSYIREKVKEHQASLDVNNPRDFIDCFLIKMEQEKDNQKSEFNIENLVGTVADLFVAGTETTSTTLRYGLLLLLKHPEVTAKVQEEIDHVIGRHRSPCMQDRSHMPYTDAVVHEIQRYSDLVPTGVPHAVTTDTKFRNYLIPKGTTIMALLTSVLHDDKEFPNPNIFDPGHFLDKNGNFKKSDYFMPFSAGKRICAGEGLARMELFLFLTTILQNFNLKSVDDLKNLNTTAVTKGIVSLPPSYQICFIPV

Cytochrome P450 2D6 = Cytochrome P450 2D6 (Homo sapiens, UniProt P10635); test: Inhibition of CYP2D6 (unknown origin) at 10 uM; format: ADME
Cytochrome P450 2D6, sequence (P10635 whole entry): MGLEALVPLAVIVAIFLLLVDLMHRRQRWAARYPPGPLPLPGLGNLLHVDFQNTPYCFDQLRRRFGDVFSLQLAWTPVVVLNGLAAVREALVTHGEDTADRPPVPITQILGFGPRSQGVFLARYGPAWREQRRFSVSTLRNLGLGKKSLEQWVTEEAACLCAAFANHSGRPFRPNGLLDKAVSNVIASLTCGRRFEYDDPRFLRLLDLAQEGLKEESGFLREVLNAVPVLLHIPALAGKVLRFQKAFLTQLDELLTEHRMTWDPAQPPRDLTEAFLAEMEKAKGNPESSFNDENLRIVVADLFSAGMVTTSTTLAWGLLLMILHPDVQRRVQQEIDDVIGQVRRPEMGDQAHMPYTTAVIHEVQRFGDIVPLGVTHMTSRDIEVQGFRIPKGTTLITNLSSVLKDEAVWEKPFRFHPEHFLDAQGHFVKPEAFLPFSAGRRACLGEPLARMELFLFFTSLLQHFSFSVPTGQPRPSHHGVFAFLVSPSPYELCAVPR

Cytochrome P450 3A4 = Cytochrome P450 3A4 (Homo sapiens, UniProt P08684); test: Inhibition of CYP3A4 (unknown origin) at 10 uM; format: ADME
Cytochrome P450 3A4, sequence (P08684 whole entry): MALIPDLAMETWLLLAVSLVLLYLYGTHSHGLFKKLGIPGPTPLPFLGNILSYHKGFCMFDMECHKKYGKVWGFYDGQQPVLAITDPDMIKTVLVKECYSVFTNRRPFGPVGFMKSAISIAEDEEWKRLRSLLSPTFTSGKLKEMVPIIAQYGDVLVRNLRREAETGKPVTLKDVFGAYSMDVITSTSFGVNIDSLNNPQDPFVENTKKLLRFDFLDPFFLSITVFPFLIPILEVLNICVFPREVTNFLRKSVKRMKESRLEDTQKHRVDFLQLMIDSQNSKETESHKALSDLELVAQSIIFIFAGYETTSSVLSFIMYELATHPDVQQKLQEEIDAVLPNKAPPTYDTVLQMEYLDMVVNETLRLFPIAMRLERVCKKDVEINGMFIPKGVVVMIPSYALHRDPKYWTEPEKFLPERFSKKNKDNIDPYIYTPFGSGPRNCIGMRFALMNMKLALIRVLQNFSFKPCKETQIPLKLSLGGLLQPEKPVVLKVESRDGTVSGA

Topoisomerase IV = Topoisomerase IV (Staphylococcus aureus, UniProt P0C1S7+P0C1U9); test: Inhibition of Staphylococcus aureus DNA topoisomerase 4; format: protein-complex assay
Topoisomerase IV, sequence (P0C1U9 whole entry): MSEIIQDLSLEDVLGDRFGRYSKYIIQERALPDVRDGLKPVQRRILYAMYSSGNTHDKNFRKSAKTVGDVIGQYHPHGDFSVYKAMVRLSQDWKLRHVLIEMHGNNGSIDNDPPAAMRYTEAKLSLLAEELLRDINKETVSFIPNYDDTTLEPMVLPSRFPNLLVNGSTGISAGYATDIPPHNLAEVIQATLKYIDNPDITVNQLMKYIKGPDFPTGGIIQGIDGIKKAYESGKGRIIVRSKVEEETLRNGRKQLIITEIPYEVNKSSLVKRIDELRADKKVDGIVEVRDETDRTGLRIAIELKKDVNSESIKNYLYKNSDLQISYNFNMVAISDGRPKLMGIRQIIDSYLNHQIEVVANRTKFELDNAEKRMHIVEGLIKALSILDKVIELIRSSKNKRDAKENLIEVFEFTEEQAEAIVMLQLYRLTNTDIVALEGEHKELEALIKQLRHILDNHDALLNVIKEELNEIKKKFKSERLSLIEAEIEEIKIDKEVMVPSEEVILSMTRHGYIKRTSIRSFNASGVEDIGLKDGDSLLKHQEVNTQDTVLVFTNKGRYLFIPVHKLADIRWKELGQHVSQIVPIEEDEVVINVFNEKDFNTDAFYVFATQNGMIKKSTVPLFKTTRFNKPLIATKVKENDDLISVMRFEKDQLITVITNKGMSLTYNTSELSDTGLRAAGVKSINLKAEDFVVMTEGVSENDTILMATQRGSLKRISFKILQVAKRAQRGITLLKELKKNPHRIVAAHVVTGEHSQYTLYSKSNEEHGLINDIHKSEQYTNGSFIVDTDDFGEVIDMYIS
Topoisomerase IV, sequence (P0C1S7 whole entry): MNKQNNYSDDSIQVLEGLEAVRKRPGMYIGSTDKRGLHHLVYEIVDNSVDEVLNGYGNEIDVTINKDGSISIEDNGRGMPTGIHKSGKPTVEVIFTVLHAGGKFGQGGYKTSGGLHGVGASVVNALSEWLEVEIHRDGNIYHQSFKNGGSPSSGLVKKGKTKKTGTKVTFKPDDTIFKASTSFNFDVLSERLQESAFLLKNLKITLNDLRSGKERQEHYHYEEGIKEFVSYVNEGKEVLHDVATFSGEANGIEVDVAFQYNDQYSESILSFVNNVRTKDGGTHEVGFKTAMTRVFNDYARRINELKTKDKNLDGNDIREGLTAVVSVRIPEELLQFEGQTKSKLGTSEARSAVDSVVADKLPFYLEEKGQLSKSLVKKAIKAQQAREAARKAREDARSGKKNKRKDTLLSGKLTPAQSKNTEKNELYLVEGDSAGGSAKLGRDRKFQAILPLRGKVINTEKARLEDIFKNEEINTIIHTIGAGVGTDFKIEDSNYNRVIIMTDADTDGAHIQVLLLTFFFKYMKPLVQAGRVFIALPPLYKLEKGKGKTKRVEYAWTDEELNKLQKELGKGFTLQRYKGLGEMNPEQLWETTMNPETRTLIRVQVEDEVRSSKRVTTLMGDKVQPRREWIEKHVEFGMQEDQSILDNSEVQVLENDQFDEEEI

Cytochrome P450 1A2 = molecular target: T2, Cytochrome P450 1A2 (Homo sapiens, UniProt P05177); test: Inhibition of CYP1A2 (unknown origin) at 10 uM; format: ADME
T2 sequence (P05177 whole entry): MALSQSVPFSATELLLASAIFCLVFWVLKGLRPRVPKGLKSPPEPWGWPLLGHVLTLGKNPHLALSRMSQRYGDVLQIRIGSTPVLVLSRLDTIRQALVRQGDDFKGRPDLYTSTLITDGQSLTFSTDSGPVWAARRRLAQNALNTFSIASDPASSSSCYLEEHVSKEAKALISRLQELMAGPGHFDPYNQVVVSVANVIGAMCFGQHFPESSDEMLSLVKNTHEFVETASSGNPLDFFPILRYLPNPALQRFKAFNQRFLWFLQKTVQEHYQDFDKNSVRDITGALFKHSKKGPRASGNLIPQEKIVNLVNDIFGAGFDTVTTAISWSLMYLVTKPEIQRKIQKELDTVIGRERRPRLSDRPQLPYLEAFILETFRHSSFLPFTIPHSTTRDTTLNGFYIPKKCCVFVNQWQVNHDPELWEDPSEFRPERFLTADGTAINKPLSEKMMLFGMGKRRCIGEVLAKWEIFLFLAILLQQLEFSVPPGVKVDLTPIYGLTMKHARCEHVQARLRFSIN

[3] = Clearance in C57 mouse at 1 mg/kg,iv administration; format: ADME, organism-based; details: in vivo
Enterococcus faecalis [4] = test: Antibacterial activity against Enterococcus faecalis assessed as inhibition of bacterial growth; format: functional
[5] = Aqueous solubility of compound; format: physicochemical
Acinetobacter baumannii = test: Antibacterial activity against Acinetobacter baumannii assessed as inhibition of bacterial growth; format: functional
Salmonella typhimurium = test: Antibacterial activity against Salmonella typhimurium assessed as inhibition of bacterial growth; format: functional, Salmonella enterica subsp. enterica serovar Typhimurium
[6] = Bioavailability in C57 mouse at 1 mg/kg,iv administration; format: ADME, organism-based; details: in vivo
Streptococcus pyogenes = test: Antibacterial activity against Streptococcus pyogenes assessed as inhibition of bacterial growth; format: functional
[7] = Tmax in C57 mouse at 3 mg/kg,po administration; format: ADME, organism-based; details: in vivo
Shigella flexneri = test: Antibacterial activity against Shigella flexneri assessed as inhibition of bacterial growth; format: functional
Helicobacter pylori = test: Antibacterial activity against Helicobacter pylori assessed as inhibition of bacterial growth; format: functional
Pseudomonas aeruginosa = test: Antibacterial activity against Pseudomonas aeruginosa assessed as inhibition of bacterial growth; format: functional
Klebsiella pneumoniae = test: Antibacterial activity against Klebsiella pneumoniae assessed as inhibition of bacterial growth; format: functional
[8] = AUC (0 to t) in C57 mouse at 3 mg/kg,po administration; format: ADME, organism-based; details: in vivo
Salmonella enterica = test: Antibacterial activity against Salmonella enterica assessed as inhibition of bacterial growth; format: functional
[9] = MRT in C57 mouse at 1 mg/kg,iv administration; format: ADME, organism-based; details: in vivo
[10] = Solubility of compound in PBS; format: physicochemical
[11] = AUC (0 to t) in C57 mouse at 1 mg/kg,iv administration; format: ADME, organism-based; details: in vivo
[12] = Cmax in C57 mouse at 3 mg/kg,po administration; format: ADME, organism-based; details: in vivo
Escherichia coli [13] = test: Antibacterial activity against Escherichia coli assessed as inhibition of bacterial growth; format: functional
[14] = Half life in C57 mouse at 1 mg/kg,iv administration; format: ADME, organism-based; details: in vivo
Staphylococcus aureus [15] = test: Antibacterial activity against methicillin resistant Staphylococcus aureus assessed as inhibition of bacterial growth; format: functional
Enterococcus faecium = test: Antibacterial activity against Enterococcus faecium assessed as inhibition of bacterial growth; format: functional
[16] = Plasma protein binding in human; format: ADME, cell-free; details: read-out: PPB (converted)
Streptococcus pneumoniae = test: Antibacterial activity against Streptococcus pneumoniae assessed as inhibition of bacterial growth; format: functional
[17] = C0 in C57 mouse at 1 mg/kg,iv administration; format: ADME, organism-based; details: in vivo
[18] = Volume of distribution at steady state in C57 mouse at 1 mg/kg,iv administration; format: ADME, organism-based; details: in vivo, read-out: Vdss
Enterococcus faecalis [19] = test: Antibacterial activity against vancomycin-resistant Enterococcus faecalis assessed as inhibition of bacterial growth; format: functional
Haemophilus influenzae = test: Antibacterial activity against Haemophilus influenzae assessed as inhibition of bacterial growth; format: functional
Staphylococcus aureus [20] = test: Antibacterial activity against Staphylococcus aureus assessed as inhibition of bacterial growth; format: functional

O=c1c2ccccc2c2ncccc2n1CCN1CCC(NCc2cc3c(cn2)OCCC3)CC1
MIC (Escherichia coli [1]): > 16 µg/mL | MIC (Staphylococcus aureus [2]): 2 µg/mL (≈ 4.26 µM)

N#Cc1ccc2ccc(=O)n(CCN3CCC(NCc4ccc5c(c4)OCC(=O)N5)CC3)c2c1
MIC (Escherichia coli [1]): > 16 µg/mL | MIC (Staphylococcus aureus [2]): > 16 µg/mL

O=c1ccc2ccccc2n1CCN1CCC(NCc2cc3c(cn2)OCCC3)CC1
MIC (Escherichia coli [1]): 16 µg/mL (≈ 38.2 µM) | MIC (Staphylococcus aureus [2]): 1 µg/mL (≈ 2.39 µM)

N#Cc1ccc2ccc(=O)n(CCN3CCC(NCc4ccc5c(c4)NC(=O)CS5(=O)=O)CC3)c2c1
MIC (Escherichia coli [1]): > 16 µg/mL | MIC (Staphylococcus aureus [2]): > 16 µg/mL

CCOC(=O)C1COc2ccc(CNC3CCN(CCn4c(=O)ccc5ccc(C#N)cc54)CC3)cc2O1 (configuration not stated)
MIC (Escherichia coli [1]): > 16 µg/mL | MIC (Staphylococcus aureus [2]): > 16 µg/mL

N#Cc1ccc2ccc(=O)n(CCN3CCC(NCc4ccc5c(c4)NC(=O)CO5)CC3)c2c1
IC50 (DNA gyrase): 3.4 nM | inhibition (INH) (Cytochrome P450 2C19): Not Active | inhibition (INH) (Cytochrome P450 2C8): Not Active | inhibition (INH) (Cytochrome P450 2D6): Not Active | inhibition (INH) (Cytochrome P450 3A4): Not Active | IC50 (Topoisomerase IV): 1300 nM | inhibition (INH) (Cytochrome P450 1A2): Not Active

c1ccc2c(c1)-c1ccccc1C2CCN1CCC(NCc2cc3c(cn2)OCCC3)CC1
MIC (Escherichia coli [1]): > 16 µg/mL | MIC (Staphylococcus aureus [2]): > 16 µg/mL

N#Cc1ccc2ccc(=O)n(CCN3CCC(NCc4ccc5c(c4)NC(=O)CS5)CC3)c2c1
clearance [3]: 80 mL/min/kg | MIC (Enterococcus faecalis [4]): 0.5 µg/mL (≈ 1.06 µM) | MIC90 (Enterococcus faecalis [4]): 0.5 µg/mL (≈ 1.06 µM) | IC50 (DNA gyrase): 3.2 nM | inhibition (INH) (Cytochrome P450 2C19): Not Active | solubility ([5]; aqueous medium, read-out: solubility): 719 µg/mL (≈ 1520 µM) | MIC (Acinetobacter baumannii): 0.125 µg/mL (≈ 0.264 µM) | MIC90 (Acinetobacter baumannii): 2 µg/mL (≈ 4.22 µM) | MIC (Salmonella typhimurium): 2 µg/mL (≈ 4.22 µM) | inhibition (INH) (Cytochrome P450 2C8): Not Active | bioavailability [6]: 18% | MIC (Streptococcus pyogenes): 0.15 µg/mL (≈ 0.317 µM) | MIC90 (Streptococcus pyogenes): 0.25 µg/mL (≈ 0.528 µM) | Tmax [7]: 3 h | MIC (Shigella flexneri): 0.25 µg/mL (≈ 0.528 µM) | MIC (Helicobacter pylori): < 0.06 µg/mL | inhibition (INH) (Cytochrome P450 2D6): Not Active | MIC (Pseudomonas aeruginosa): 0.125 µg/mL (≈ 0.264 µM) | MIC90 (Pseudomonas aeruginosa): 8 µg/mL (≈ 16.9 µM) | MIC (Escherichia coli [1]): < 0.125 µg/mL | MIC90 (Klebsiella pneumoniae): 16 µg/mL (≈ 33.8 µM) | inhibition (INH) (Cytochrome P450 3A4): Not Active | AUC(0-t) [8]: 110 ng·h/mL | MIC (Salmonella enterica): 1 µg/mL (≈ 2.11 µM) | MRT [9]: 3 h | solubility ([10]; PBS, read-out: solubility): 611 µg/mL (≈ 1290 µM) | AUC(0-t) [11]: 206 ng·h/mL | Cmax [12]: 22 ng/mL | MIC (Escherichia coli [13]): 0.125 µg/mL (≈ 0.264 µM) | MIC90 (Escherichia coli [13]): 2 µg/mL (≈ 4.22 µM) | MIC (Staphylococcus aureus [2]): < 0.125 µg/mL | half-life [14]: 2.5 h | MIC (Staphylococcus aureus [15]): 0.03 µg/mL (≈ 0.0633 µM) | MIC90 (Staphylococcus aureus [15]): 0.125 µg/mL (≈ 0.264 µM) | MIC (Enterococcus faecium): 1 µg/mL (≈ 2.11 µM) | MIC90 (Enterococcus faecium): 1 µg/mL (≈ 2.11 µM) | fraction unbound [16]: 0.21 | MIC (Streptococcus pneumoniae): 0.125 µg/mL (≈ 0.264 µM) | MIC90 (Streptococcus pneumoniae): 1 µg/mL (≈ 2.11 µM) | IC50 (Topoisomerase IV): 300 nM | C0 [17]: 1210 ng/mL | Vd [18]: 14 L/kg | MIC (Enterococcus faecalis [19]): 0.25 µg/mL (≈ 0.528 µM) | MIC90 (Enterococcus faecalis [19]): 4 µg/mL (≈ 8.45 µM) | inhibition (INH) (Cytochrome P450 1A2): Not Active | MIC (Haemophilus influenzae): 2 µg/mL (≈ 4.22 µM) | MIC (Staphylococcus aureus [20]): 0.016 µg/mL (≈ 0.0338 µM) | MIC90 (Staphylococcus aureus [20]): 0.125 µg/mL (≈ 0.264 µM)

N#Cc1ccc2ccc(=O)n(CCN3CCC(NCc4cc5c(cn4)OCCC5)CC3)c2c1
MIC (Escherichia coli [1]): 0.5 µg/mL (≈ 1.13 µM) | MIC (Staphylococcus aureus [2]): 0.125 µg/mL (≈ 0.282 µM)

O=c1ccc2ncc(=O)n3c2n1C[C@H]3CN1CCC(NCc2cc3c(cn2)OCCC3)CC1 [GEPOTIDACIN]
clearance [3]: 60 mL/min/kg | solubility ([5]; buffer): 580 µg/mL (≈ 1290 µM) | MIC90 (Acinetobacter baumannii): 64 µg/mL (≈ 143 µM) | bioavailability [6]: 24% | Tmax [7]: 2 h | MIC90 (Pseudomonas aeruginosa): 32 µg/mL (≈ 71.3 µM) | MIC (Escherichia coli [1]): 0.5 µg/mL (≈ 1.11 µM) | AUC(0-t) [8]: 176 ng·h/mL | MRT [9]: 1.4 h | solubility ([10]; buffer): 663 µg/mL (≈ 1480 µM) | AUC(0-t) [11]: 244 ng·h/mL | Cmax [12]: 90 ng/mL | MIC (Staphylococcus aureus [2]): 0.25 µg/mL (≈ 0.557 µM) | half-life [14]: 1.7 h | fraction unbound [16]: 0.67 | C0 [17]: 724 ng/mL | Vd [18]: 5 L/kg

N#Cc1ccc2ccc(=O)n(CCN3CCC(NCc4ccc5c(c4)CCCC5)CC3)c2c1
MIC (Escherichia coli [1]): 1 µg/mL (≈ 2.27 µM) | MIC (Staphylococcus aureus [2]): < 0.125 µg/mL

CN1C(=O)C(C)(C)Oc2ccc(CNC3CCN(CCn4c(=O)ccc5ccc(C#N)cc54)CC3)cc21
MIC (Escherichia coli [1]): > 16 µg/mL | MIC (Staphylococcus aureus [2]): > 16 µg/mL

O=c1c2ccccc2c2ccccc2n1CCN1CCC(NCc2cc3c(cn2)OCCC3)CC1
MIC (Escherichia coli [1]): > 16 µg/mL | MIC (Staphylococcus aureus [2]): 1 µg/mL (≈ 2.13 µM)
